{"source": "the supplement of paper PMC10307832", "assay_in_all_cases": "relative viability (nuclei count vs DMSO), 5 days (fraction); higher = more cells survive", "key": {"[1]": {"tested_on": "A-427", "procedure,_shortened": "(§1)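 One day after seeding in 1536-well plates, lung cancer cell lines were dosed by pin tool. Dosing was either single-drug or a fixed anchor-drug dose plus five library-drug doses (not always all listed) in √10 steps. After 5 days, nuclei were stained in one fix-and-stain step and counted on 4× images, and relative viability is the nuclei count of treated wells over that of vehicle wells, given as the median of duplicate plates.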"}, "[2]": {"tested_on": "NCI-H2228", "procedure,_shortened": "as §1"}, "[3]": {"tested_on": "201T", "procedure,_shortened": "as §1"}, "[4]": {"tested_on": "NCI-H596", "procedure,_shortened": "as §1"}, "[5]": {"tested_on": "H3255", "procedure,_shortened": "as §1"}, "[6]": {"tested_on": "NCI-H23", "procedure,_shortened": "as §1"}, "[7]": {"tested_on": "SW 1573", "procedure,_shortened": "as §1"}, "[8]": {"tested_on": "HCC-44", "procedure,_shortened": "as §1"}, "[9]": {"tested_on": "NCI-H460", "procedure,_shortened": "as §1"}, "[10]": {"tested_on": "LU99A", "procedure,_shortened": "as §1"}, "[11]": {"tested_on": "LK-2", "procedure,_shortened": "as §1"}}}
{"smiles": "CC(=O)O[C@@]12CO[C@@H]1C[C@H](O)[C@@]1(C)C(=O)[C@H](O)C3=C(C)[C@@H](OC(=O)[C@H](O)[C@@H](NC(=O)OC(C)(C)C)c4ccccc4)C[C@@](O)([C@@H](OC(=O)c4ccccc4)[C@H]21)C3(C)C", "note": "[Docetaxel] + CC(=O)Nc1cccc(-n2c(=O)n(C3CC3)c(=O)c3c(Nc4ccc(I)cc4F)n(C)c(=O)c(C)c32)c1 [Trametinib] (partner 0.02 µM)", "values": [{"measurement": "relative viability", "setting": "[1]; first compound 0.0002 µM", "value": 0.765}, {"measurement": "relative viability", "setting": "[1]; first compound 0.000632 µM", "value": 0.775}, {"measurement": "relative viability", "setting": "[1]; first compound 0.002 µM", "value": 0.552}, {"measurement": "relative viability", "setting": "[1]; first compound 0.006325 µM", "value": 0.388}, {"measurement": "relative viability", "setting": "[1]; first compound 0.02 µM", "value": 0.216}, {"measurement": "relative viability", "setting": "[2]; first compound 0.0002 µM", "value": 0.529}, {"measurement": "relative viability", "setting": "[2]; first compound 0.000632 µM", "value": 0.233}, {"measurement": "relative viability", "setting": "[2]; first compound 0.002 µM", "value": 0.202}, {"measurement": "relative viability", "setting": "[2]; first compound 0.006325 µM", "value": 0.188}, {"measurement": "relative viability", "setting": "[2]; first compound 0.02 µM", "value": 0.121}, {"measurement": "relative viability", "setting": "[3]; first compound 0.0002 µM", "value": 0.7}, {"measurement": "relative viability", "setting": "[3]; first compound 0.000632 µM", "value": 0.713}, {"measurement": "relative viability", "setting": "[3]; first compound 0.002 µM", "value": 0.644}, {"measurement": "relative viability", "setting": "[3]; first compound 0.006325 µM", "value": 0.498}, {"measurement": "relative viability", "setting": "[3]; first compound 0.02 µM", "value": 0.366}, {"measurement": "relative viability", "setting": "[4]; first compound 0.0002 µM", "value": 0.807}, {"measurement": "relative viability", "setting": "[4]; first compound 0.000632 µM", "value": 0.997}, {"measurement": "relative viability", "setting": "[4]; first compound 0.002 µM", "value": 0.642}, {"measurement": "relative viability", "setting": "[4]; first compound 0.006325 µM", "value": 0.555}, {"measurement": "relative viability", "setting": "[4]; first compound 0.02 µM", "value": 0.277}, {"measurement": "relative viability", "setting": "[5]; first compound 0.0002 µM", "value": 0.554}, {"measurement": "relative viability", "setting": "[5]; first compound 0.000632 µM", "value": 0.635}, {"measurement": "relative viability", "setting": "[5]; first compound 0.002 µM", "value": 0.52}, {"measurement": "relative viability", "setting": "[5]; first compound 0.006325 µM", "value": 0.361}, {"measurement": "relative viability", "setting": "[5]; first compound 0.02 µM", "value": 0.303}, {"measurement": "relative viability", "setting": "[6]; first compound 0.0002 µM", "value": 0.377}, {"measurement": "relative viability", "setting": "[6]; first compound 0.000632 µM", "value": 0.294}, {"measurement": "relative viability", "setting": "[6]; first compound 0.002 µM", "value": 0.278}, {"measurement": "relative viability", "setting": "[6]; first compound 0.006325 µM", "value": 0.195}, {"measurement": "relative viability", "setting": "[6]; first compound 0.02 µM", "value": 0.132}, {"measurement": "relative viability", "setting": "[7]; first compound 0.0002 µM", "value": 0.467}, {"measurement": "relative viability", "setting": "[7]; first compound 0.000632 µM", "value": 0.307}, {"measurement": "relative viability", "setting": "[7]; first compound 0.002 µM", "value": 0.165}, {"measurement": "relative viability", "setting": "[7]; first compound 0.006325 µM", "value": 0.192}, {"measurement": "relative viability", "setting": "[7]; first compound 0.02 µM", "value": 0.108}, {"measurement": "relative viability", "setting": "[8]; first compound 0.0002 µM", "value": 1.04}, {"measurement": "relative viability", "setting": "[8]; first compound 0.000632 µM", "value": 1}, {"measurement": "relative viability", "setting": "[8]; first compound 0.002 µM", "value": 1.07}, {"measurement": "relative viability", "setting": "[8]; first compound 0.006325 µM", "value": 0.577}, {"measurement": "relative viability", "setting": "[8]; first compound 0.02 µM", "value": 0.472}, {"measurement": "relative viability", "setting": "[9]; first compound 0.0002 µM", "value": 0.103}, {"measurement": "relative viability", "setting": "[9]; first compound 0.000632 µM", "value": 0.0804}, {"measurement": "relative viability", "setting": "[9]; first compound 0.002 µM", "value": 0.0715}, {"measurement": "relative viability", "setting": "[9]; first compound 0.006325 µM", "value": 0.0192}, {"measurement": "relative viability", "setting": "[9]; first compound 0.02 µM", "value": 0.0118}, {"measurement": "relative viability", "setting": "[10]; first compound 0.0002 µM", "value": 0.53}, {"measurement": "relative viability", "setting": "[10]; first compound 0.000632 µM", "value": 0.561}, {"measurement": "relative viability", "setting": "[10]; first compound 0.002 µM", "value": 0.346}, {"measurement": "relative viability", "setting": "[10]; first compound 0.006325 µM", "value": 0.3}, {"measurement": "relative viability", "setting": "[11]; first compound 0.0002 µM", "value": 0.683}, {"measurement": "relative viability", "setting": "[11]; first compound 0.000632 µM", "value": 0.528}]}
